Where a SMILES comes first, the peptide text is derived from it. Where no end group is shown, it is not given here. The star is where a group is joined. Cbz = O=C(OCc1ccccc1)*; CH2F = FC*
Columns and labels:
caspase-3 = target: T1, caspase-3 (Homo sapiens, UniProt P42574); assay: Fluorescent caspase-3 inhibition assay (caspase-3 inhibitor drug detection kit); type: biochemical; conditions: purified caspase-3/caspase-6 assay, FIGS. 1E-1F
T1 construct: purchased Abcam
T1 sequence (P42574 29-277): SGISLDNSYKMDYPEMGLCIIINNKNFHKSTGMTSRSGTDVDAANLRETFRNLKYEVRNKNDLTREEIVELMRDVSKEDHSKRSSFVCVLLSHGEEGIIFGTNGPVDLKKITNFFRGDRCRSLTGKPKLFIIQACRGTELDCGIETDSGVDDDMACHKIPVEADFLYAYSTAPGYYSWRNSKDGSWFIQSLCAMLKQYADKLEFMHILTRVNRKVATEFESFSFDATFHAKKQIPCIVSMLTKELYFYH

caspase-6 = target: T2, caspase-6 (Homo sapiens, UniProt P55212); assay: Purified caspase-6 activity assay (Caspase-Glo 6, Z-VEID-aminoluciferin); type: biochemical
T2 construct: purchased Enzo life-science
T2 sequence (P55212 24-293): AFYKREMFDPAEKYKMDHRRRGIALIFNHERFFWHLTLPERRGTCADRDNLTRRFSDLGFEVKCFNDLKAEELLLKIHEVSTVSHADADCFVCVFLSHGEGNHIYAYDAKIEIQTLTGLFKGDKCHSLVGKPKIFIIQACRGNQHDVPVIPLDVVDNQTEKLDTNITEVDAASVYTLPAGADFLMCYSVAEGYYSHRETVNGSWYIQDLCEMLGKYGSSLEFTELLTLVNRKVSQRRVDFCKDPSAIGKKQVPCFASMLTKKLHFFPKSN
Experimental: For determining ED11 caspase-6 inhibition ability, the Caspase-Glo® 6 assay (Promega) was carried out according to the manufacturer's instructions. Briefly, 0.1 U/ml Purified caspase-6 (Enzo life-science) was incubated with 0-12 μM Z-VEID-aminoluciferin in the presence of 10 μM ED11 or DMSO as vehicle control, and luminescent signal of released aminoluciferin (as RLU) was detected using Synergy HT multi-mode micro-plate reader (Bio-Tek). For Michaelis-Menten curve plotting, initial velocity was calculated using linear regression of the progress curve linear segment, adjusted to RLU/min. For caspase-3 inhibition capability, caspase-3 inhibitor drug detection kit (Abcam) was performed according to the manufacturer's instructions.
EDII inhibits caspase-6 activity in a purified caspase-6 activity assay: To test the peptide ability to compete on caspase-6 activity, purified caspase-6 and Z-VEID-Aminoluciferin (Caspase-6 Glo™, Promega) were incubated with ED11, and bioluminescence signal was detected using SynergyHT microplate reader (FIGS. 1A-1D).

SH-SY5Y cells = assay: Cell viability, proliferation and cell cycle in a basal state; type: cell-based, Human; conditions: up to 50 μM
Experimental: SH-SY5Y cells were pre-incubated with 25 μM ED11 for one hour. Then, 10 μM 5-bromo-2-deoxyuridine (BrdU) was added for 2 hours. Medium was discarded and cells were fixed with 70% ethanol. DNA denaturation was conducted with 1.5 M HCl exposure for 30 minutes. FITC conjugated anti-BrdU antibody was used to mark incorporated BrdU. DNA staining was performed by using propidium iodide (PI). 15,000 cells per sample were read using FACS-Calibur flow cytometer, and cell-cycle analysis was conducted after doublet discrimination.
To induce exogenous glutamate toxicity, SH-SY5Y cell were incubated with the indicated concentrations of L-Glutamate (Sigma) for 16 hours, in the presence of 20 μM ED11 or vehicle control. For the In-cell caspase-6 activity assay, green FLICA caspase-6 assay (ImmunoChemistry Technologies) was conducted according to the manufacturer's instructions. Briefly, cells were lifted by trypsin and adjusted to 1.5×10^6 cells/ml. Cells were incubated with FAM-VEID-FMK for 1 hour in 37° C., washed with PBS and 5,000 cells per sample were analyzed by flow-cytometry. For apoptosis detection, Annexin V-FITC apoptosis detection assay (Abcam) was conducted according to the manufacturer's instructions. Briefly, 2×10^5 cells were incubated with Annexin V-FITC and PI for 5 minutes in R.T, and 15,000 cells per sample were analyzed by flow-cytometry. For viability assessment, medium was depleted and washed twice with PBS, and alamar-blue dye (AbD serotec, 1/10 in culture medium) was added to the cells, as instructed by the manufacturer. Fluorescence was monitored at 530-560 nm excitation wavelength and 590 nm emission wavelength, and viability was calculated as percentage of untreated control.

COC(=O)C[C@H](NC(=O)[C@H](C)NC(=O)[C@@H](NC(=O)OCc1ccccc1)C(C)C)C(=O)CF [Z-VAD-FMK, reference compound] (Cbz-Val-Ala-Asp(OMe)-CH2F)
caspase-3 activity, specificity experiment (caspase-3): inhibits activity of caspase-3 and caspase-6
caspase-6 activity, specificity experiment (caspase-6; purified caspase-3/caspase-6 assay, FIGS. 1E-1F): inhibits activity of caspase-3 and caspase-6

GRKKRRQRRRPPQSSEIVLDGTDN [ED11]
cell proliferation (BrdU) (SH-SY5Y cells): no effect
cell viability (ALAMAR blue) (SH-SY5Y cells; 48 hours incubation): no effect
cell cycle state (SH-SY5Y cells; O.N. incubation): no effect

modified peptide: ED11 with three of the amino acids in positions 17, 20 and 23 changed to Histidine (H) (GRKKRRQRRRPPQSSEHVLHGTHN)
caspase-6 activity (caspase-6; purified caspase-6, Z-VEID-aminoluciferin, 10 μM ED11): ineffective and didn't inhibit the caspase 6 activity
